Laboratory results from patent publication US20130012466A1 (priority 2006, published 2013).
Entries after “also recorded” stand apart in the source; their conditions may differ. Read-outs that look alike come from different tables or passages of the source.

Tests used:
[1] = tested on: mouse mammary normal epithelial control cell line; assay: Cytotoxicity assay, normal control cell line
Hep3B = assay: Cytotoxicity assay (cell titer-glo and calcein AM), Hep3B
NCI-H460 = assay: Cytotoxicity assay (cell titer-glo and calcein AM), NCI-H460
ADR-RES = assay: Cytotoxicity assay (cell titer-glo and calcein AM), ADR-RES
SK-OV-3 = assay: Cytotoxicity assay (cell titer-glo and calcein AM), SK-OV-3
MCF7 = assay: Cytotoxicity assay (cell titer-glo and calcein AM), MCF7
Du145 = assay: Cytotoxicity assay (cell titer-glo and calcein AM), Du145
SF-268 = assay: Cytotoxicity assay (cell titer-glo and calcein AM), SF-268
tubulin = assay: In vitro tubulin polymerization assay (fluorescence-based); assay type: biochemical; set-up: key to tubulin polymeriz.: ‘D’ designates destabilizer; ‘S’ designates stabilizer; conditions: for effect on tubulin polymerization / microtubules: tested in duplicate on at least two days
Experimental: In vitro tubulin polymerization assays were performed using a fluorescence-based assay (Cytoskeleton, Inc., Denver, Colo.). […] Aliquots (5 μL) of each compound or control were added to a 96-well black half area plate (Corning Costar, Inc.) pre-warmed to 37° C. Cold tubulin reaction mix (50 μL 1× Buffer—80 mM piperazine-N,N′-bis[2-ethanesulfonic acid]sequisodium salt; 2.0 mM magnesium chloride; 0.5 mM ethylene glycol-bis[β-amino-ethyl ether) N,N,N′,N′-tetra-acetic acid, pH 6.9, 10 μM fluorescent reporter; 20% tubulin glycerol buffer—80 mM piperazine-N,N′-bis[2-ethanesulfonic acid] sequisodium salt; 2.0 mM magnesium chloride; 0.5 mM ethylene glycol-bis(β-amino-ethyl ether) N,N,N′,N′-tetra-acetic acid, 60% v/v glycerol, pH 6.9, 1 mM GTP; and 2 mg mL^−1 tubulin stock) was added to each of the compounds. […] Polymerization curves were generated in Excel after background correction and the effects of test compounds were compared to controls.
Library members that accelerated the rate of tubulin polymerization were deemed microtubule stabilizers, whereas compounds that decelerated the rate of tubulin polymerization were deemed microtubule de-stabilizers.

A549 = assay: Cytotoxicity assay (cell titer-glo and calcein AM), A549
HCT-116 = assay: Cytotoxicity assay (cell titer-glo and calcein AM), HCT-116
A549 cells [2] = assay: Drug combination study with paclitaxel (Chou-Talalay combination index); conditions: for plus paclitaxel, mean CI / plus paclitaxel, median CI: combination index, paclitaxel held at IC10, A549 cells; for interaction with paclitaxel/taxol: drug combination, A549 cells, Chou-Talalay;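 on all read-outs here: combination indexes averaged only over points where fraction affected exceeded 0.2, with each synergy experiment repeated at least three times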
Experimental: (§1) Ten thousand A549 cells per well were plated in triplicate in 96 well black tissue culture treated plates. Cells were incubated for one hour at 37° C. to allow cells to attach.
(§2) All synergy experiment results were replicated at least three times and the overall effects analyzed by averaging all combination indexes generated if the fraction affected was greater than 0.2.

A549 cells [3] = assay: Drug combination study with colchicine (Chou-Talalay combination index); conditions: for plus colchicine, mean CI / plus colchicine, median CI: combination index, colchicine held at IC10, A549 cells; for interaction with colchicine: drug combination, A549 cells, Chou-Talalay
Experimental: as §1, §2

[4] = read-out: Cytotoxicity IC50, NmuMG, CTG, CTG (cell titer-glo) readout, % error in parentheses
[5] = read-out: Cytotoxicity IC50, NmuMG, calcein, calcein AM readout, % error in parentheses
[6] = read-out: Cytotoxicity IC50, Hep 3B, CTG, Hep 3B, CTG (cell titer-glo) readout, % error in parentheses
[7] = read-out: Cytotoxicity IC50, Hep 3B, calcein, Hep 3B, calcein AM readout, % error in parentheses
[8] = read-out: Cytotoxicity IC50, NCI-H460, CTG, NCI-H460, CTG (cell titer-glo) readout, % error in parentheses
[9] = read-out: Cytotoxicity IC50, NCI-H460, calcein, NCI-H460, calcein AM readout, % error in parentheses
[10] = read-out: Cytotoxicity IC50, NCI/ADR RES, CTG, NCI/ADR RES, CTG (cell titer-glo) readout, % error in parentheses
[11] = read-out: Cytotoxicity IC50, NCI/ADR RES, calcein, NCI/ADR RES, calcein AM readout, % error in parentheses
[12] = read-out: Cytotoxicity IC50, SK-OV-3, CTG, SK-OV-3, CTG (cell titer-glo) readout, % error in parentheses
[13] = read-out: Cytotoxicity IC50, SK-OV-3, calcein, SK-OV-3, calcein AM readout, % error in parentheses
[14] = read-out: Cytotoxicity IC50, MCF7, CTG, CTG (cell titer-glo) readout, % error in parentheses
[15] = read-out: Cytotoxicity IC50, MCF7, calcein, calcein AM readout, % error in parentheses
[16] = read-out: Cytotoxicity IC50, Du145, CTG, Du145, CTG (cell titer-glo) readout, % error in parentheses
[17] = read-out: Cytotoxicity IC50, Du145, calcein, Du145, calcein AM readout, % error in parentheses
[18] = read-out: Cytotoxicity IC50, SF-268, CTG, SF-268, CTG (cell titer-glo) readout, % error in parentheses
[19] = read-out: Cytotoxicity IC50, SF-268, calcein, SF-268, calcein AM readout, % error in parentheses
[20] = read-out: Cytotoxicity IC50, A549, CTG, A549, CTG (cell titer-glo) readout, % error in parentheses
[21] = read-out: Cytotoxicity IC50, A549, calcein, A549, calcein AM readout, % error in parentheses
[22] = read-out: Cytotoxicity IC50, HCT-116, CTG, HCT-116, CTG (cell titer-glo) readout, % error in parentheses
[23] = read-out: Cytotoxicity IC50, HCT-116, calcein, HCT-116, calcein AM readout, % error in parentheses
[24] = Homo sapiens, Hep3B, read-out: Cytotoxicity IC50, Hep 3B, calcein
[25] = Homo sapiens, NCI/ADR-RES, read-out: Cytotoxicity IC50, NCI/ADR RES, calcein
[26] = Homo sapiens, SK-OV-3, read-out: Cytotoxicity IC50, SK-OV-3, CTG
[27] = Homo sapiens, SK-OV-3, read-out: Cytotoxicity IC50, SK-OV-3, calcein
[28] = Homo sapiens, DU-145, read-out: Cytotoxicity IC50, Du145, CTG
[29] = Homo sapiens, DU-145, read-out: Cytotoxicity IC50, Du145, calcein
[30] = Homo sapiens, SF-268, read-out: Cytotoxicity IC50, SF-268, calcein
[31] = Homo sapiens, HCT-116, read-out: Cytotoxicity IC50, HCT-116, CTG
[32] = Homo sapiens, HCT-116, read-out: Cytotoxicity IC50, HCT-116, calcein

Compound	IC50 [1, 4] [nM]	IC50 [1, 5] [nM]	IC50 (Hep3B; [6]) [nM]	IC50 (Hep3B; [7]) [nM]	IC50 (NCI-H460; [8]) [nM]	IC50 (NCI-H460; [9]) [nM]	IC50 (ADR-RES; [10]) [nM]	IC50 (ADR-RES; [11]) [nM]	IC50 (SK-OV-3; [12]) [nM]	IC50 (SK-OV-3; [13]) [nM]	IC50 (MCF7; [14]) [nM]	IC50 (MCF7; [15]) [nM]	IC50 (Du145; [16]) [nM]	IC50 (Du145; [17]) [nM]	IC50 (SF-268; [18]) [nM]	IC50 (SF-268; [19]) [nM]	tubulin polymeriz. (tubulin)	effect on tubulin polymerization / microtubules (tubulin)	IC50 (A549; [20]) [nM]	IC50 (A549; [21]) [nM]	also measured
COc1cc2c(c(OC)c1OC)-c1ccc(OC)c(=O)cc1C(NC(=O)CN(OC)C1CC(O)C(O)C(C)O1)CC2 [Col65, D-Digitoxoside]	7750	3320	1700	1880	862	744	893	694	634	1030	946	648	850	939	800	665	no effect	no apparent effect	1490	2300	IC50 (HCT-116; [22]): 918 nM; IC50 (HCT-116; [23]): 897 nM
CONCC(=O)N[C@H]1CCc2cc(OC)c(OC)c(OC)c2-c2ccc(OC)c(=O)cc21 [Col 8, 19-N-methoxyamino-colchicine]																					IC50 (Hep3B; Homo sapiens, Hep3B, read-out: Cytotoxicity IC50, Hep 3B, CTG): 141 nM; IC50 (Hep3B; [24]): 284 nM; IC50 (ADR-RES; Homo sapiens, NCI/ADR-RES, read-out: Cytotoxicity IC50, NCI/ADR RES, CTG): 79 nM; IC50 (ADR-RES; [25]): 65 nM; IC50 (SK-OV-3; [26]): 455 nM; IC50 (SK-OV-3; [27]): 316 nM; IC50 (Du145; [28]): 64 nM; IC50 (Du145; [29]): 84 nM; IC50 (SF-268; Homo sapiens, SF-268, read-out: Cytotoxicity IC50, SF-268, CTG): 116 nM; IC50 (SF-268; [30]): 191 nM; plus paclitaxel, mean CI (A549 cells [2]): 0.90; plus paclitaxel, median CI (A549 cells [2]): 0.57; interaction with paclitaxel/taxol (A549 cells [2]): synergy; plus colchicine, mean CI (A549 cells [3]): 2.98; plus colchicine, median CI (A549 cells [3]): 1.47; interaction with colchicine (A549 cells [3]): antagonism; IC50 (HCT-116; [31]): 116 nM; IC50 (HCT-116; [32]): 98 nM
CC(=O)O[C@H]1C(=O)[C@@]2(C)[C@H]([C@H](OC(=O)c3ccccc3)[C@]3(O)C[C@H](OC(=O)[C@H](O)[C@@H](NC(=O)c4ccccc4)c4ccccc4)C(C)=C1C3(C)C)[C@]1(OC(C)=O)CO[C@@H]1C[C@@H]2O [paclitaxel, reference compound]																	S	stabilizing; also recorded: stabilized the microtubules			IC50 (Hep3B; [24]): 166 nM; IC50 (Hep3B; Homo sapiens, Hep3B, read-out: IC50 (Hep3B)): 166 nM; IC50 (NCI-H460; Homo sapiens, NCI-H460, read-out: IC50 (NCI-H460)): 105 nM; IC50 (ADR-RES; [25]): 43 nM; IC50 (ADR-RES; Homo sapiens, read-out: IC50 (ADR-RES)): 43 nM; IC50 (SK-OV-3; [26]): 42 nM; IC50 (SK-OV-3; [27]): 34 nM; IC50 (SK-OV-3; Homo sapiens, SK-OV-3, read-out: IC50 (SK-OV-3)): 34 nM; IC50 (Du145; [28]): 432 nM; IC50 (Du145; [29]): 290 nM; IC50 (Du145; Homo sapiens, DU-145, read-out: IC50 (Du145)): 290 nM; IC50 (SF-268; [30]): 315 nM; IC50 (SF-268; Homo sapiens, SF-268, read-out: IC50 (SF-268)): 315 nM; IC50 (A549; Homo sapiens, A549, read-out: IC50 (A549)): 75 nM; IC50 (HCT-116; [31]): 168 nM; IC50 (HCT-116; [32]): 275 nM; IC50 (HCT-116; Homo sapiens, HCT-116, read-out: IC50 (HCT-116)): 275 nM
COc1cc2c(c(OC)c1OC)-c1ccc(OC)c(=O)cc1[C@@H](NC(=O)CN(OC)[C@@H]1O[C@H](CO)[C@@H](O)[C@H](O)[C@H]1F)CC2 [Col34, 2-fluoro-2-deoxy-D-glucoside]	451	760	545	1170	> 1000	> 1000	> 1000	> 1000	325	800	242	254		328	281	452		destabilized microtubules	545	778	plus paclitaxel, mean CI (A549 cells [2]): 0.18; plus paclitaxel, median CI (A549 cells [2]): 0.12; interaction with paclitaxel/taxol (A549 cells [2]): strong synergism; plus colchicine, mean CI (A549 cells [3]): 31.49; plus colchicine, median CI (A549 cells [3]): 21.50; interaction with colchicine (A549 cells [3]): strong antagonism
6-thio-D-mannose dimer [Col58]	6390	> 10000	8620	5020	> 10000	> 10000	3600	1570	6070	7560	2500	3860	2090	2120	8010	9090			3920	4620	IC50 (HCT-116; [22]): 1900 nM; IC50 (HCT-116; [23]): 2510 nM
